Results reported in publication PMC8791944, “GLUT3 inhibitor discovery through in silico ligand screening and in vivo validation in eukaryotic expression systems” (Scientific Reports, 2022).

Each compound was assayed against T1, GLUT5S72Y (Homo sapiens, UniProt P22732, S72Y) (assay: Fructose transport assay, GLUT5S72Y expressed in hxt^0 yeast cells EBY.VW4000). Conditions: GLUT5S72Y in hxt^0 yeast cells, 10 mM fructose; read-out: IC50 for GLUT5 transport inhibition.
T1 construct: expressed in transfected cells; host or cells: Saccharomyces cerevisiae hxt0 strain EBY.VW4000
T1 sequence (P22732 1-501 S72Y): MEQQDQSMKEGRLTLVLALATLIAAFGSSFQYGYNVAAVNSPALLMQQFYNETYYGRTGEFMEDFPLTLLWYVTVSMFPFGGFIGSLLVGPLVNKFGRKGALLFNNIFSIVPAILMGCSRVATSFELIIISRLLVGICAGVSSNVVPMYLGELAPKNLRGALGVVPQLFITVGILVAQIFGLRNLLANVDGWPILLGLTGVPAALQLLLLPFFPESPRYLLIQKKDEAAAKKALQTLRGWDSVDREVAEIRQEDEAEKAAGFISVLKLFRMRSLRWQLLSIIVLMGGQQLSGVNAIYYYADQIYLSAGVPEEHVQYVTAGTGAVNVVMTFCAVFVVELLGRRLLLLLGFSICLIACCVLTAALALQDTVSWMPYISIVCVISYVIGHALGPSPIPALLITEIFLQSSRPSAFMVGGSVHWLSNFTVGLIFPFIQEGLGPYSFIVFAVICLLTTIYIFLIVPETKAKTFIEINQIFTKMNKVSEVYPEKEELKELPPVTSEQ
Format: cell-based
From the text: The most studied GLUTs are Class 1 GLUTs (GLUT1-4) and a Class 2 GLUT, GLUT5 (a fructose-only transporter). GLUT3 sequence homology and identity is 79% and 64%, 71% and 52%, 74% and 57%, and 60% and 38% with GLUT1, GLUT2, GLUT4, and GLUT5, respectively. The hxt^0 yeast cell systems expressing functional GLUT1-4[65],[69] and GLUT5[66] allow us to determine the in vivo transport activity (substrate uptake by a GLUT into whole cells) for individual GLUTs and establish GLUT3 inhibitor selectivity for these transporters. […] Given the higher sequence similarity within Class 1 GLUTs, we expected GLUT3 inhibitors to affect Class 1 GLUTs much more than GLUT5. Indeed, G3iA-G3iF reduced the transport activities of some of the other Class 1 GLUTs (Fig. 3A–C, Table 2, Supplementary Fig. S6). […] For example, G3iB was an equipotent inhibitor of GLUT4, while G3iD and G3iE inhibited GLUT1 in a similar manner to GLUT3. […] Moreover, G3iD affected all Class 1 GLUTs, having the best relative selectivity for GLUT4.
Figure 3 Effect of GLUT3 inhibitors on GLUT1, GLUT2, GLUT4, and GLUT5. The transport activity was assayed as the substrate uptake in hexose transporter-deficient yeast cells expressing functional GLUT1[65], GLUT2[69], GLUT4[65], or GLUT5[66]. […] Transport assay was initiated by the addition of C^14-labeled substrate and stopped after 10 min (see “Materials and methods” for details). (A–D) Effect of G3iA-G3iF, at 50 µM concentration, on the relative transport activities of GLUT1 (A), GLUT2 (B), GLUT4 (C), and GLUT5 (D). Standard deviations for experimental points come from at least three independent measurements.
The plasmids containing functional constructs of GLUT1-5 were transformed in the corresponding hxt^0 strains[65],[66],[73] (EBY.VW4000 for GLUT5S72Y, EBY.S7 for GLUT1, GLUT2∆loopS_Q455R, GLUT3 and GLUT3S66Y, and SDY.022 for GLUT4) and grown on 2% (w/v) agar plates of the respective media supplemented with 1% (w/v) maltose. An initial culture of ~ 10 ml was started with a few colonies and grown for 2–3 days if the media was SC-uracil with 1% (w/v) maltose (GLUT1, GLUT3, GLUT4) or 1–2 days if the media was YEP with 1% (w/v) maltose and 100 µg/ml geneticin G418 (GLUT2∆loopS_Q455R and GLUT5S72Y). […] Then, cells were transferred in the same media so that OD600nm ~ 0.5 and grown further for 1–2 days.
For transport activity assay, cells in the hexose media were centrifuged (1000×g, 5 min, room temperature), washed once with PBS buffer (10 mM Na2HPO4, 1.8 mM KH2PO4, 2.7 mM KCl, 137 mM NaCl, pH 7.4), and resuspended in PBS buffer at an OD600nm ~ 10; each assay contained 100 µl of this cell solution. […] Substrate uptake into cells was linear for more than 20 min. […] The filtration membranes were transferred into scintillation vials with 10 ml of Scintillation Solution (BioSafeII; Research Products International, Mount Prospect, IL, USA), and vortexed briefly. The radioactivity was determined with a scintillation counter (Tri-carb 2900TR, Perkin Elmer, USA). As all compounds were solubilized in dimethyl sulfoxide (DMSO), controls for determining the relative transport activity included 1% (v/v) DMSO to represent DMSO used as vehicle control (i.e., 100% activity), and known inhibitors at saturating concentrations, 200 µM phloretin for GLUT1-4[69],[82], and 100 µM N-[4-(methylsulfonyl)-2-nitrophenyl]-1,3-benzodioxol-5-amine (MSNBA) for GLUT5 (i.e., complete inhibition). […] Data were analyzed with GraphPad Prism (San Diego, CA, USA).

Structure (SMILES)	IC50
CC(=O)Nc1ccc(S(=O)(=O)Nc2ccc(Nc3cc(N(C)C)nc(C)n3)cc2)cc1 [G3iA, N-(4-{[(4-{[6-(dimethylamino)-2-methylpyrimidin-4-yl]amino}phenyl)amino]sulfonyl}phenyl)acetamide]	> 50 µM
COc1ccccc1-n1c(/C=C/c2ccc(O)cc2)nc2ccc(Br)cc2c1=O [G3iB, 6-bromo-2-[(E)-2-(4-hydroxyphenyl)ethenyl]-3-(2-methoxyphenyl)quinazolin-4(3H)-one]	> 50 µM
Cc1cccnc1OC1CCN(c2cc(N3CCCC3CO)ncn2)CC1 (stereo not drawn) [G3iC]	> 50 µM
Cc1cc(NC(=O)CCC2Cc3ccccc3NC2=O)nc(-c2ccccc2)n1 (stereo not drawn) [G3iD]	> 50 µM
O=C(Nc1cccc(Cl)c1)c1cccc(NC(=O)c2cccc([N+](=O)[O-])c2)c1 [G3iE, N-{3-[(3-chloroanilino)carbonyl]phenyl}-3-nitrobenzamide]	> 50 µM
Cc1ccccc1CN(Cc1nnc(C(C)(C)C)o1)c1ccc2nc(O)[nH]c2c1 [G3iF]	> 50 µM
